One may read the TGI as the concentration giving total growth inhibition. As a reminder, the GI50 is the concentration that inhibits growth by half.

Where “and” joins values, the source holds several entries; their conditions need not be identical. Equal entries are not always repeated.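 Each compound was tested at five concentrations against cells in 96-well plates for 48 hours. GI50: concentration for 50% inhibition of growth. TGI: total growth inhibition.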

Some test systems named below: SK-OV-3 ovarian; 786-0 renal; A498 renal; HCC-2998 colon; MDA-N; A549 NSCLC; COLO 205 colon; HCT-15 colon; CCRF-CEM leukemia; HL-60(TB) leukemia; EKVX NSCLC; SF-539 CNS; CAKI-1 renal; TK-10 renal; NCI-H460 lung; DU-145 prostate; SK-MEL-5 melanoma.
What all share (assay): DTP human tumour cell line panel, 48 h

For `CCC1(CC)N=C(C(F)(F)F)c2cc(C(=O)C(F)(F)F)c3ccccc3c2N1`, the TGI is 49.7 µM in the assay with SK-OV-3 ovarian; 13.7 µM in the assay on 786-0 renal; 35.3 µM in the assay with A498 renal; 15.3 µM in the assay with HCC-2998 colon; 15.7 µM with MDA-N; 60.7 µM with A549 NSCLC. For the same compound, the TGI was 28.4 µM in the assay on COLO 205 colon; above 100 µM in the assay on HCT-15 colon; 31.1 µM with CCRF-CEM leukemia; 8.25 µM with HL-60(TB) leukemia; 64.2 µM in the assay on EKVX NSCLC; 31.8 µM in the assay with SF-539 CNS. The TGI in the assay with CAKI-1 renal is above 100 µM; in the assay with TK-10 renal, 61.3 µM; in the assay with NCI-H460 lung, 24.1 µM; with DU-145 prostate, 21.5 µM; with SK-MEL-5 melanoma, 11.4 µM.
As to `O=S(=O)(O)c1ccc2c(N=Nc3ccc(S(=O)(=O)O)c4ccccc34)c(O)c(S(=O)(=O)O)cc2c1`, the concentration for total growth inhibition (TGI) in the assay on SK-OV-3 ovarian, in the assay on 786-0 renal, in the assay with A498 renal, in the assay with HCC-2998 colon, in the assay with MDA-N and in the assay on A549 NSCLC was above 100 µM in each case. The TGI in the assay with COLO 205 colon, in the assay on HCT-15 colon, in the assay with CCRF-CEM leukemia, in the assay with HL-60(TB) leukemia, in the assay with EKVX NSCLC and in the assay on SF-539 CNS was above 100 µM throughout. The TGI with CAKI-1 renal, in the assay with TK-10 renal, in the assay with NCI-H460 lung, in the assay on DU-145 prostate and with SK-MEL-5 melanoma was above 100 µM each time. The GI50 in the assay with A549 NSCLC was 28.7 µM and > 100 µM.
On to `COC(=O)c1c(O)ccc2c1c1c(n2Cc2ccccc2OC)C(=O)c2ccccc2C1=O`, for which the TGI was 53.7 µM in the assay on SK-OV-3 ovarian; 24 µM in the assay with 786-0 renal; above 100 µM with A498 renal; 15.7 µM with HCC-2998 colon; 37.9 µM with MDA-N; 20.2 µM in the assay on A549 NSCLC. The concentration for total growth inhibition (TGI) was 3.31 µM in the assay on COLO 205 colon; 20 µM with HCT-15 colon; 17.7 µM in the assay on CCRF-CEM leukemia; 18.3 µM in the assay with HL-60(TB) leukemia; 45 µM with EKVX NSCLC; 47.1 µM with SF-539 CNS. In addition, the TGI was determined as 37.9 µM with CAKI-1 renal; 65 µM in the assay on TK-10 renal; 16.6 µM with NCI-H460 lung; 30 µM with DU-145 prostate; 25.8 µM in the assay with SK-MEL-5 melanoma.
Take `CC(NC1=CC(=O)c2cccnc2C1=O)C(O)c1ccccc1` (stereo not given): the TGI was 23.4 µM with SK-OV-3 ovarian; 12.2 µM with 786-0 renal; 8.82 µM with A498 renal; 10.8 µM in the assay with HCC-2998 colon; 1.3 µM in the assay with MDA-N; 5.13 µM in the assay with A549 NSCLC. Further, the TGI was found to be 3.42 µM with COLO 205 colon; 8.08 µM in the assay on HCT-15 colon; 25.5 µM with CCRF-CEM leukemia; 6.69 µM with HL-60(TB) leukemia; 20.1 µM in the assay on EKVX NSCLC; 3.75 µM with SF-539 CNS. In addition, the TGI in the assay on CAKI-1 renal came out at 7.23 µM; with TK-10 renal it was 28.1 µM; in the assay on NCI-H460 lung, 2.78 µM; with DU-145 prostate, 3.65 µM; in the assay on SK-MEL-5 melanoma, 2.44 µM.
`Cc1nc2cc3ccccc3cc2[nH]c1=O`: the TGI with SK-OV-3 ovarian, in the assay on 786-0 renal, with A498 renal, with HCC-2998 colon, in the assay with MDA-N and in the assay with A549 NSCLC was above 100 µM in each case. For the same compound, the TGI in the assay with COLO 205 colon, in the assay with HCT-15 colon, in the assay with CCRF-CEM leukemia, with HL-60(TB) leukemia, in the assay on EKVX NSCLC and with SF-539 CNS was above 100 µM each time. For the same compound, the TGI in the assay on CAKI-1 renal, in the assay with TK-10 renal, in the assay on NCI-H460 lung, in the assay on DU-145 prostate and in the assay with SK-MEL-5 melanoma was above 100 µM each time.
For `Cc1ccc(S(=O)(=O)N/N=C2\CCC3(O)CC2(C)CCC2C3CC2(C)C)cc1` (stereo not given), the concentration for total growth inhibition (TGI) in the assay with SK-OV-3 ovarian, with 786-0 renal, in the assay with A498 renal, with HCC-2998 colon, with MDA-N and with A549 NSCLC was above 100 µM each time. In addition, the TGI in the assay with COLO 205 colon was 46.5 µM; with HCT-15 colon, above 100 µM; in the assay on CCRF-CEM leukemia, above 100 µM; with HL-60(TB) leukemia, above 100 µM; with EKVX NSCLC, above 100 µM; with SF-539 CNS it was above 100 µM. For the same compound, the TGI in the assay on CAKI-1 renal was above 100 µM; in the assay with TK-10 renal, 75.8 µM; in the assay on NCI-H460 lung, 46.7 µM; with DU-145 prostate, above 100 µM; with SK-MEL-5 melanoma it was above 100 µM.
With `Cc1ccc(S(=O)(=O)N/N=C2\CCCCCCCCCCC2CN(C)C)cc1` (stereo not given), the TGI in the assay on SK-OV-3 ovarian was found to be 36 µM; with 786-0 renal, 29.9 µM; in the assay with A498 renal it was 34.9 µM; in the assay on HCC-2998 colon it was 20.8 µM; with MDA-N it was 32.8 µM; in the assay on A549 NSCLC, 41 µM. Also, the total growth inhibition concentration (TGI) worked out at 31.9 µM in the assay on COLO 205 colon; 29 µM in the assay with HCT-15 colon; 37.2 µM with CCRF-CEM leukemia; 97.5 µM in the assay with HL-60(TB) leukemia; 70 µM in the assay on EKVX NSCLC; 31.6 µM with SF-539 CNS. Besides, the TGI in the assay with CAKI-1 renal came to 50.4 µM; in the assay with TK-10 renal, 27.6 µM; in the assay on NCI-H460 lung, 25.3 µM; with DU-145 prostate, 34.8 µM; in the assay with SK-MEL-5 melanoma it was 24 µM.
Turning to `CCOC(=O)CCC(NC(=O)c1ccc(Oc2nc3c(N)cc(C(F)(F)F)cc3nc2-c2ccccc2)cc1)C(=O)OCC` (stereo not given), the TGI in the assay with SK-OV-3 ovarian is above 58.6 µM; in the assay with 786-0 renal, above 22 µM; with A498 renal it was above 94.3 µM; in the assay with HCC-2998 colon, above 100 µM; in the assay with MDA-N it was above 100 µM; in the assay on A549 NSCLC, above 100 µM. The TGI with COLO 205 colon is above 100 µM; in the assay on HCT-15 colon, above 100 µM; in the assay on CCRF-CEM leukemia, above 100 µM; in the assay with HL-60(TB) leukemia it was above 100 µM; in the assay with EKVX NSCLC it was above 100 µM; in the assay with SF-539 CNS, 8.48 µM. Further, the TGI was 8.91 µM in the assay with CAKI-1 renal; above 100 µM with TK-10 renal; above 100 µM in the assay with NCI-H460 lung; above 64.8 µM with DU-145 prostate; above 100 µM with SK-MEL-5 melanoma.
Consider `CO[C@]12S[C@@H]3CCCC[C@@]31C(C)(C)C(=O)N2c1ccccc1`, for which the TGI is 76.8 µM in the assay with SK-OV-3 ovarian; above 100 µM in the assay with 786-0 renal; above 100 µM with A498 renal; above 100 µM in the assay on HCC-2998 colon; above 100 µM in the assay on MDA-N; above 100 µM in the assay on A549 NSCLC. Also, the TGI with COLO 205 colon is 44 µM; with HCT-15 colon it was above 100 µM; with CCRF-CEM leukemia it was above 100 µM; with HL-60(TB) leukemia it was 42.5 µM; with EKVX NSCLC, above 100 µM; in the assay with SF-539 CNS, 28.6 µM. The TGI in the assay on CAKI-1 renal is above 100 µM; in the assay on TK-10 renal, above 100 µM; in the assay on NCI-H460 lung, above 100 µM; in the assay with DU-145 prostate it was above 100 µM; with SK-MEL-5 melanoma, 43.3 µM.
In the case of `COC(=O)Cc1c([C@H]2[C@H](CC(=O)OC)c3ccccc3N2S(=O)(=O)c2ccc(C)cc2)[nH]c2ccccc12`, the TGI in the assay with SK-OV-3 ovarian, in the assay with 786-0 renal, with A498 renal, with HCC-2998 colon, in the assay on MDA-N and with A549 NSCLC was above 100 µM throughout. Besides, the TGI in the assay on COLO 205 colon, with HCT-15 colon, in the assay on CCRF-CEM leukemia, in the assay with HL-60(TB) leukemia, in the assay with EKVX NSCLC and with SF-539 CNS was above 100 µM throughout. Further, the total growth inhibition concentration (TGI) in the assay with CAKI-1 renal, in the assay with TK-10 renal, with NCI-H460 lung, in the assay on DU-145 prostate and in the assay with SK-MEL-5 melanoma was above 100 µM in each case.
Regarding `c1ccc(-c2c(-c3cccs3)[nH]c(-c3cccs3)c2-c2ccccn2)nc1`, the TGI with SK-OV-3 ovarian is 51.3 µM; in the assay with 786-0 renal, 53 µM; with A498 renal it was 78.2 µM; in the assay on HCC-2998 colon it was 44.3 µM; in the assay on MDA-N, above 100 µM; in the assay on A549 NSCLC it was 72.8 µM. The TGI is 30.6 µM in the assay with COLO 205 colon; 40.4 µM in the assay with HCT-15 colon; 52.5 µM with CCRF-CEM leukemia; above 100 µM with HL-60(TB) leukemia; 65.4 µM with EKVX NSCLC; 40.6 µM in the assay with SF-539 CNS. In addition, the TGI in the assay on CAKI-1 renal is above 100 µM; in the assay with TK-10 renal it was above 100 µM; with NCI-H460 lung it was 63.5 µM; in the assay with DU-145 prostate, above 100 µM; with SK-MEL-5 melanoma it was 26.6 µM.
`C=CCOCn1cc(F)c(=O)[nH]c1=O`: the TGI with SK-OV-3 ovarian, in the assay on 786-0 renal, with A498 renal, in the assay with HCC-2998 colon, in the assay on MDA-N and with A549 NSCLC was above 100 µM throughout. Moreover, the TGI with COLO 205 colon, in the assay on HCT-15 colon, in the assay with CCRF-CEM leukemia, in the assay with HL-60(TB) leukemia, in the assay with EKVX NSCLC and in the assay with SF-539 CNS was above 100 µM throughout. In addition, the TGI in the assay on CAKI-1 renal, in the assay on TK-10 renal, with NCI-H460 lung, in the assay with DU-145 prostate and in the assay on SK-MEL-5 melanoma was above 100 µM throughout.

The values are drawn from PubChem BioAssay (NCI).
